# Reference: US20240067645A1, “HETEROCYCLIC COMPOUND AS DIACYLGLYCEROL KINASE INHIBITOR AND USE THEREOF” (LG CHEM, LTD., priority 2020, published 2024)
# Biological target: DGKα (Homo sapiens (Human), UniProt P23743)
# Assay: Measurement of inhibitory effect against DGKα enzyme (ADP-Glo)
# Format: biochemical
# Conditions: DGKα enzyme, ADP-Glo luminescence, OAG/ATP substrate, 20 min room temperature; read-out: IC50
# Procedure: Experimental Example: Measurement of Inhibitory Effect Against DGKα Enzyme
# First, 3×OAG (3 mM)/ATP (0.45 mM) substrate solution was prepared from 1× substrate assay buffer (40 mM MOPS (pH 7.2), 20 mM MgCl2, 1 mM DTT, 0.4 mM CaCl2), 3 mM sodium deoxycholate, 100 mM NaCl, 0.1 mg/mL BSA, 0.12% NP-40), and vortexed thoroughly for 3 minutes to induce detergent-lipid micelle formation. Then, 3×DGKα (7.5 nM) enzyme solution was prepared from 2× enzyme assay buffer (80 mM MOPS (pH 7.2), 2 mM DTT, 200 mM NaCl, 0.2 mg/mL BSA) and vortexed for a short time.
# After preparing the above two solutions, a half-area opaque 96-well assay plate was prepared, and 10 μL of 3× diluted compound solution (30 μM to 0 μM) was transferred to each well. Next, 10 μL of 3×DGK enzyme solution was transferred to the same plate, mixed by pipetting, and then 10 μL of 3×OAG/ATP substrate solution was added to the assay plate and mixed well. The plate was incubated at room temperature for 20 minutes for the enzyme reaction. Next, 15 μL of ADP-Glo reagent was added to each well and mixed by pipetting, followed by incubating the plate at room temperature for 40 minutes to deplete the remaining ATPs. After this step, 30 μL of kinase detection reagent was added and mixed, and the plate was incubated at room temperature for an additional 20 minutes and luminescence was measured by Envision to calculate the IC50 value of each compound.
# The measurement results are represented in Table 1 (+: IC50>5 μM, ++: 5 μM>IC50>300 nM, +++: IC50<300 nM).
# DGKα, sequence (P23743 whole entry, species assumed): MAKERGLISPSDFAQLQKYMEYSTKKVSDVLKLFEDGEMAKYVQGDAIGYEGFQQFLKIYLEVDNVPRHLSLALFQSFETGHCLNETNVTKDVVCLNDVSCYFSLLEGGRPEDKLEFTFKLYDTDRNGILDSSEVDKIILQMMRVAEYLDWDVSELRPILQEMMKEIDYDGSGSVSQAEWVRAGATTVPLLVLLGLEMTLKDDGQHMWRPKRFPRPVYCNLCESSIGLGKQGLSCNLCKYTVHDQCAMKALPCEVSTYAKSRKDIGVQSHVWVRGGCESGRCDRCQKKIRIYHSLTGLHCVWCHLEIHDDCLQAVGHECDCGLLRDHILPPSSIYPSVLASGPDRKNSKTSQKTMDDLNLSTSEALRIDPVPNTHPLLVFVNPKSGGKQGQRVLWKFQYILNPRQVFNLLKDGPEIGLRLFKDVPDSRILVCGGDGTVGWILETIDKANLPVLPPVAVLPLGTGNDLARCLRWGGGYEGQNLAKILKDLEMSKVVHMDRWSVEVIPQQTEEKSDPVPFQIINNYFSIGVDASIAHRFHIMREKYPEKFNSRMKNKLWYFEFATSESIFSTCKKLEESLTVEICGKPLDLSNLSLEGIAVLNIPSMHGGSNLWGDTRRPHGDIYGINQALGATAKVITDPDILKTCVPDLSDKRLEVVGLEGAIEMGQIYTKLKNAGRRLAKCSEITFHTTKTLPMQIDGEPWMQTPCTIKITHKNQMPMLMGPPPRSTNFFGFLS
row,SMILES,IC50
1,"Cn1c(=O)c(=O)n(C2CCN(Cc3ccc(OC(F)(F)F)cc3)CC2)c2ncccc21 [Example 1, methyl-4-(1-(4-(trifluoromethoxy)benzyl)piperidin-4-yl)-1,4-dihydropyrido[2,3-b]pyrazine-2,3-dione]",< 300 nM
2,"Cc1ccc2c(n1)n(C1CCN(Cc3ccc(OC(F)(F)F)cc3)CC1)c(=O)c(=O)n2C [Example 2, 1,6-dimethyl-4-(1-(4-(trifluoromethoxy)benzyl)piperidin-4-yl)-1,4-dihydropyrido[2,3-b]pyrazine-2,3-dione]",< 300 nM
3,"CCn1c(=O)c(=O)n(C2CCN(Cc3ccc(OC(F)(F)F)cc3)CC2)c2ncccc21 [Example 3, ethyl-4-(1-(4-(trifluoromethoxy)benzyl)piperidin-4-yl)-1,4-dihydropyrido[2,3-b]pyrazine-2,3-dione]",300 to 5000 nM
4,"CC(C)Cn1c(=O)c(=O)n(C2CCN(Cc3ccc(OC(F)(F)F)cc3)CC2)c2ncccc21 [Example 4, isobutyl-4-(1-(4-(trifluoromethoxy)benzyl)piperidin-4-yl)-1,4-dihydropyrido[2,3-b]pyrazine-2,3-dione]",> 5000 nM
5,"Cc1ccc2c(n1)n(C1CCN(Cc3cccc4ccccc34)CC1)c(=O)c(=O)n2C [Example 5, 1,6-dimethyl-4-(1-(naphthalen-1-ylmethyl)piperidin-4-yl)-1,4-dihydropyrido[2,3-b]pyrazine-2,3-dione]",< 300 nM
6,"Cc1ccc2c(n1)n(C1CCN(Cc3cc4ccccc4nc3Cl)CC1)c(=O)c(=O)n2C [Example 6, 4-(1-((2-chloroquinolin-3-yl)methyl)piperidin-4-yl)-1,6-dimethyl-1,4-dihydropyrido[2,3-b]pyrazine-2,3-dione]",300 to 5000 nM
7,"Cc1ccc2c(n1)n(C1CCN(Cc3c(C)n(C)c4ccccc34)CC1)c(=O)c(=O)n2C [Example 7, 4-(1-((1,2-dimethyl-1H-indol-3-yl)methyl)piperidin-4-yl)-1,6-dimethyl-1,4-dihydropyrido[2,3-b]pyrazine-2,3-dione]",> 5000 nM
8,"Cc1ccc2c(n1)n(C1CCN(Cc3ccc4c(ccn4C)c3)CC1)c(=O)c(=O)n2C [Example 8, 1,6-dimethyl-4-(1-((1-methyl-1H-indol-5-yl)methyl)piperidin-4-yl)-1,4-dihydropyrido[2,3-b]pyrazine-2,3-dione]",300 to 5000 nM
9,"Cc1ccc2c(n1)n(C1CCN(Cc3ccnc4ccccc34)CC1)c(=O)c(=O)n2C [Example 9, 1,6-dimethyl-4-(1-(quinolin-4-ylmethyl)piperidin-4-yl)-1,4-dihydropyrido[2,3-b]pyrazine-2,3-dione]",300 to 5000 nM
10,"Cc1ccc2c(n1)n(C1CCN(Cc3ccccc3-c3ccccc3)CC1)c(=O)c(=O)n2C [Example 10, 4-(1-([1,1′-biphenyl]-2-ylmethyl)piperidin-4-yl)-1,6-dimethyl-1,4-dihydropyrido[2,3-b]pyrazine-2,3-dione]",300 to 5000 nM
11,"Cn1c(=O)c(=O)n(C2CCN(Cc3ccc(OC(F)(F)F)cc3)CC2)c2nc(C#N)ccc21 [Example 11, 1-methyl-2,3-dioxo-4-(1-(4-(trifluoromethoxy)benzyl)piperidin-4-yl)-1,2,3,4-tetrahydropyrido[2,3-b]pyrazine-6-carbonitrile]",300 to 5000 nM
12,"Cc1ccc2c(n1)n(C1CCN(Cc3ccccc3Cl)CC1)c(=O)c(=O)n2C [Example 12, 4-(1-(2-chlorobenzyl)piperidin-4-yl)-1,6-dimethyl-1,4-dihydropyrido[2,3-b]pyrazine-2,3-dione]",300 to 5000 nM
13,"Cc1ccc2c(n1)n(C1CCN(Cc3cccc(Cl)c3)CC1)c(=O)c(=O)n2C [Example 13, 4-(1-(3-chlorobenzyl)piperidin-4-yl)-1,6-dimethyl-1,4-dihydropyrido[2,3-b]pyrazine-2,3-dione]",< 300 nM
14,"Cc1ccc2c(n1)n(C1CCN(Cc3ccc(Cl)cc3)CC1)c(=O)c(=O)n2C [Example 14, 4-(1-(4-chlorobenzyl)piperidin-4-yl)-1,6-dimethyl-1,4-dihydropyrido[2,3-b]pyrazine-2,3-dione]",300 to 5000 nM
15,"COc1ncccc1CN1CCC(n2c(=O)c(=O)n(C)c3ccc(C)nc32)CC1 [Example 15, 4-(1-((2-methoxypyridin-3-yl)methyl)piperidin-4-yl)-1,6-dimethyl-1,4-dihydropyrido[2,3-b]pyrazine-2,3-dione]",> 5000 nM
16,"Cc1ccc2c(n1)n(C1CCN(Cc3cccc(F)n3)CC1)c(=O)c(=O)n2C [Example 16, 4-(1-((6-fluoropyridin-2-yl)methyl)piperidin-4-yl)-1,6-dimethyl-1,4-dihydropyrido[2,3-b]pyrazine-2,3-dione]",> 5000 nM

row,SMILES,IC50
1,"Cc1ccc2c(n1)n(C1CCN(Cc3ccc(F)nc3)CC1)c(=O)c(=O)n2C [Example 17, 4-(1-((6-fluoropyridin-3-yl)methyl)piperidin-4-yl)-1,6-dimethyl-1,4-dihydropyrido[2,3-b]pyrazine-2,3-dione]",300 to 5000 nM
2,"Cc1ccc2c(n1)n(C1CCN(Cc3ccc(Oc4ccccc4)cc3)CC1)c(=O)c(=O)n2C [Example 18, 1,6-dimethyl-4-(1-(4-phenoxybenzyl)piperidin-4-yl)-1,4-dihydropyrido[2,3-b]pyrazine-2,3-dione]",< 300 nM
3,"Cc1ccc2c(n1)n(C1CCN(Cc3ccc4ccccc4c3)CC1)c(=O)c(=O)n2C [Example 19, 1,6-dimethyl-4-(1-(naphthalen-2-ylmethyl)piperidin-4-yl)-1,4-dihydropyrido[2,3-b]pyrazine-2,3-dione]",300 to 5000 nM
4,"Cc1ccc2c(n1)n(C1CCN(Cc3cccc4cnccc34)CC1)c(=O)c(=O)n2C [Example 20, 4-(1-(isoquinolin-5-ylmethyl)piperidin-4-yl)-1,6-dimethyl-1,4-dihydropyrido[2,3-b]pyrazine-2,3-dione]",300 to 5000 nM
5,"Cc1ccc2c(n1)n(C1CCN(Cc3cccc(Oc4ccccc4)c3)CC1)c(=O)c(=O)n2C [Example 21, 1,6-dimethyl-4-(1-(3-phenoxybenzyl)piperidin-4-yl)-1,4-dihydropyrido[2,3-b]pyrazine-2,3-dione]",300 to 5000 nM
6,"Cn1c(=O)c(=O)n(C2CCN(Cc3cccc(Cl)c3)CC2)c2ncccc21 [Example 22, 4-(1-(3-chlorobenzyl)piperidin-4-yl)-1-methyl-1,4-dihydropyrido[2,3-b]pyrazine-2,3-dione]",< 300 nM
7,"Cc1ccc2c(n1)n(C1CCN(Cc3ccccc3)CC1)c(=O)c(=O)n2C [Example 23, 4-(1-benzylpiperidin-4-yl)-1,6-dimethyl-1,4-dihydropyrido[2,3-b]pyrazine-2,3-dione]",300 to 5000 nM
8,"Cc1ccc2c(n1)n(C1CCN(C(C)c3ccc4nccnc4c3)CC1)c(=O)c(=O)n2C (stereo not shown) [Example 24, 1,6-dimethyl-4-(1-(1-(quinoxalin-6-yl)ethyl)piperidin-4-yl)-1,4-dihydropyrido[2,3-b]pyrazine-2,3-dione]",> 5000 nM
9,"Cn1c(=O)c(=O)n(C2CCN(Cc3cccc(Cl)c3)CC2)c2nc(C#N)ccc21 [Example 25, 4-(1-(3-chlorobenzyl)piperidin-4-yl)-1-methyl-2,3-dioxo-1,2,3,4-tetrahydropyrido[2,3-b]pyrazine-6-carbonitrile]",300 to 5000 nM
10,"Cn1c(=O)c(=O)n(C2CCN(Cc3cccc4ccccc34)CC2)c2nc(C#N)ccc21 [Example 26, 1-methyl-4-(1-(naphthalen-1-ylmethyl)piperidin-4-yl)-2,3-dioxo-1,2,3,4-tetrahydropyrido[2,3-b]pyrazine-6-carbonitrile]",300 to 5000 nM
11,"Cn1c(=O)c(=O)n(C2CCN(Cc3ccc(OC(F)(F)F)cc3)CC2)c2ncc(Cl)cc21 [Example 28, 7-chloro-1-methyl-4-(1-(4-(trifluoromethoxy)benzyl)piperidin-4-yl)-1,4-dihydropyrido[2,3-b]pyrazine-2,3-dione]",< 300 nM
12,"Cn1c(=O)c(=O)n(C2CCN(Cc3cccc4ccccc34)CC2)c2ncc(Cl)cc21 [Example 29, 7-chloro-1-methyl-4-(1-(naphthalen-1-ylmethyl)piperidin-4-yl)-1,4-dihydropyrido[2,3-b]pyrazine-2,3-dione]",< 300 nM
13,"Cn1c(=O)c(=O)n(C2CCN(Cc3cccc(C(F)(F)F)c3)CC2)c2ncc(Cl)cc21 [Example 30, 7-chloro-1-methyl-4-(1-(3-(trifluoromethyl)benzyl)piperidin-4-yl)-1,4-dihydropyrido[2,3-b]pyrazine-2,3-dione]",< 300 nM
14,"Cn1c(=O)c(=O)n(C2CCN(Cc3ccc(OC(F)(F)F)cc3)CC2(C)C)c2ncc(Cl)cc21 (stereo not shown) [Example 31, 7-chloro-4-(3,3-dimethyl-1-(4-(trifluoromethoxy)benzyl)piperidin-4-yl)-1-methyl-1,4-dihydropyrido[2,3-b]pyrazine-2,3-dione]",300 to 5000 nM
15,"Cn1c(=O)c(=O)n([C@H]2C[C@H]3CC[C@@H](C2)N3Cc2ccc(OC(F)(F)F)cc2)c2ncc(Cl)cc21 [Example 32, 7-chloro-1-methyl-4-((1R,3s,5S)-8-(4-(trifluoromethoxy)benzyl)-8-azabicyclo[3.2.1]octan-3-yl)-1,4-dihydropyrido[2,3-b]pyrazine-2,3-dione]",< 300 nM
